We go through 3 molecules from patent publication US8207190B2, “Enantiomer of tenatoprazole and the use thereof in therapy” (Mitsubishi Tanabe Pharma Corporation, priority 2003, dated 2012).

Data set [1] can be described thus: solubility of (+), (−) and racemic forms of tenatoprazole in water. Format: physicochemical. The settings on record: for solubility in water relative to the racemic form: versus racemic form.
For data set [2] the following is noted: versus other proton pump inhibitors such as omeprazole or lansoprazole; cited from earlier work.
Data set [3] in a line: clinical. The settings on record: human, plasma.
Data set [4] can be described thus: chiral pharmacokinetic study, plasma analysis after chiral separation in genotyped subjects.
Method: In parallel, a chiral pharmacokinetic study was conducted to assess the preponderance of the pharmacokinetic characteristics of the (−) isomer in the pharmacokinetics of racemic tenatoprazole.
These subjects have a very weak metabolic activity concerning CYP2C19, which is responsible for the metabolism of tenatoprazole. […] These subjects are qualified as slow metabolisers.

Values after ≈ are worked out from the molar mass of the structure shown. Read-outs that look alike come from different tables or passages of the source.

For orientation: solubility means the dissolved amount per volume that the medium holds. Lower therefore signals little dissolved substance. A word on the half-life: it is the time needed for the level to fall by half in the phase considered. Lower therefore signals rapid decline. `COc1ccc2[nH]c([S+]([O-])Cc3ncc(C)c(OC)c3C)nc2n1` (racemic) [(±)racemic form, (+)-5-methoxy-2-{[(4-methoxy-3,5-dimethyl-2-pyridyl)methyl]sulfinyl}imidazo-[4,5-b]pyridine] had a solubility in data set [1] of 34.6 µg/mL (≈ 99.9 µM). Moreover, the “plasma half-life relative to other proton pump inhibitors” value in data set [2] was “about seven”. In addition, the half-life in data set [3] (20 mg) is roughly 7 h; in data set [3] (80 mg) it was roughly 9 h.

For `COc1ccc2[nH]c([S+]([O-])Cc3ncc(C)c(OC)c3C)nc2n1` (single isomer, unassigned; (+)) [(+) form], in data set [1], the “Solubility (water)” value amounted to 93.0 µg/mL (≈ 268 µM) and the “solubility in water relative to the racemic form” value was roughly 3 times. The “plasma level of the isomer compared with the other isomer” value in data set [4] (slow metabolisers, CYP2C19*2/*2 genotype, plasma after chiral separation) is “highly significant increase”.

`COc1ccc2[nH]c([S+]([O-])Cc3ncc(C)c(OC)c3C)nc2n1` (single isomer, unassigned; (-)) [(−) enantiomer]: the “Solubility (water)” value in data set [1] (listed as (−) form) was found to be 74.4 µg/mL (≈ 215 µM). Besides, the “solubility in water relative to the racemic form” value in data set [1] is listed as “over 2 times”. Moreover, in data set [4] (rapid metabolisers, CYP2C19*1/*1 genotype), the “plasma concentration of the isomer compared with the other isomer” value is listed as “higher concentration”.
